Target: c-kit (Homo sapiens, UniProt P10721)
Experiment: c-kit assays of Examples 40 and 41 (AlphaScreen kinase assays at 10 and 100 μM ATP, 33P-ATP filter assay, M-07e SCF-stimulated proliferation and phosphorylation)

Sequence of c-kit (P10721 with tags, fused parts or gaps): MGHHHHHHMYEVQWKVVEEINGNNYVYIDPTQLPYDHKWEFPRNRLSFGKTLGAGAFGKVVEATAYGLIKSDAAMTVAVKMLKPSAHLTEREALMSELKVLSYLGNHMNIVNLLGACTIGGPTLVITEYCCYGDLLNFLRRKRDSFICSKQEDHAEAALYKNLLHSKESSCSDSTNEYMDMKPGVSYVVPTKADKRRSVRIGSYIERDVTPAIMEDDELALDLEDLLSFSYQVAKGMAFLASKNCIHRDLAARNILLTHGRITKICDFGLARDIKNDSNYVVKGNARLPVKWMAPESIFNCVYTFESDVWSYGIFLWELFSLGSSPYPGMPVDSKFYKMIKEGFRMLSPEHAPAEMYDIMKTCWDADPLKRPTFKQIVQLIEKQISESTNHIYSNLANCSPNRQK

Structure (SMILES) | IC50 [nM]
Cc1cc(CNc2ccc(Cc3c[nH]c4ncccc34)cn2)no1 [P-0095, (5-Methyl-isoxazol-3-ylmethyl)-[5-(1H-pyrrolo[2,3-b]pyridin-3-ylmethyl)-pyridin-2-yl]-amine] | < 1000
c1cnc2[nH]cc(Cc3ccc(NCCN4CCCC4)nc3)c2c1 [P-0096, (2-Pyrrolidin-1-yl-ethyl)-[5-(1H-pyrrolo[2,3-b]pyridin-3-ylmethyl)-pyridin-2-yl]-amine] | < 1000
CC(Nc1ccc(Cc2c[nH]c3ncccc23)cn1)c1ccc(S(C)(=O)=O)cc1 (stereo not shown) [P-0097, [1-(4-Methanesulfonyl-phenyl)-ethyl]-[5-(1H-pyrrolo[2,3-b]pyridin-3-ylmethyl)-pyridin-2-yl]-amine] | < 1000
COCCNc1ccc(Cc2c[nH]c3ncccc23)cn1 [P-0098, (2-Methoxy-ethyl)-[5-(1H-pyrrolo[2,3-b]pyridin-3-ylmethyl)-pyridin-2-yl]-amine] | < 1000
c1cnc2[nH]cc(Cc3ccc(NCCN4CCOCC4)nc3)c2c1 [P-0099, (2-Morpholin-4-yl-ethyl)-[5-(1H-pyrrolo[2,3-b]pyridin-3-ylmethyl)-pyridin-2-yl]-amine] | < 1000
O=C(Nc1ccc(Cc2c[nH]c3ncccc23)cn1)c1ccc(Cl)c(Cl)c1 [P-0100, 3,4-Dichloro-N-[5-(1H-pyrrolo[2,3-b]pyridin-3-ylmethyl)-pyridin-2-yl]-benzamide] | < 1000
O=C(Nc1ccc(Cc2c[nH]c3ncccc23)cn1)c1ccc(F)cc1Cl [P-0101, 2-Chloro-4-fluoro-N-[5-(1H-pyrrolo[2,3-b]pyridin-3-ylmethyl)-pyridin-2-yl]-benzamide] | < 1000
Cc1cc(C(=O)Nc2ccc(Cc3c[nH]c4ncccc34)cn2)n(C)n1 [P-0102, 2,5-Dimethyl-2H-pyrazole-3-carboxylic acid [5-(1H-pyrrolo[2,3-b]pyridin-3-ylmethyl)-pyridin-2-yl]-amide] | < 1000
O=C(Nc1ccc(Cc2c[nH]c3ncccc23)cn1)c1cccs1 [P-0103, Thiophene-2-carboxylic acid [5-(1H-pyrrolo[2,3-b]pyridin-3-ylmethyl)-pyridin-2-yl]-amide] | < 1000
COc1cc(C(=O)Nc2ccc(Cc3c[nH]c4ncccc34)cn2)ccn1 [P-0104, 2-Methoxy-N-[5-(1H-pyrrolo[2,3-b]pyridin-3-ylmethyl)-pyridin-2-yl]-isonicotinamide] | < 1000
O=C(Nc1ccc(Cc2c[nH]c3ncccc23)cn1)c1ccncc1 [P-0105, N-[5-(1H-Pyrrolo[2,3-b]pyridin-3-ylmethyl)-pyridin-2-yl]-isonicotinamide] | < 1000
O=C(Nc1ccc(Cc2c[nH]c3ncccc23)cn1)c1ccccn1 [P-0107, Pyridine-2-carboxylic acid [5-(1H-pyrrolo[2,3-b]pyridin-3-ylmethyl)-pyridin-2-yl]-amide] | < 1000
Cc1ccc(C(=O)Nc2ccc(Cc3c[nH]c4ncccc34)cn2)cn1 [P-0108, 6-Methyl-N-[5-(1H-pyrrolo[2,3-b]pyridin-3-ylmethyl)-pyridin-2-yl]-nicotinamide] | < 1000
Cc1cc(C(=O)Nc2ccc(Cc3c[nH]c4ncccc34)cn2)ccc1F [P-0109, 4-Fluoro-3-methyl-N-[5-(1H-pyrrolo[2,3-b]pyridin-3-ylmethyl)-pyridin-2-yl]-benzamide] | < 1000
O=C(Nc1ccc(Cc2c[nH]c3ncccc23)cn1)c1cccc(Cl)c1 [P-0111, 3-chloro-N-[5-(1H-pyrrolo[2,3-b]pyridin-3-ylmethyl)-pyridin-2-yl]-benzamide] | < 1000
O=C(Nc1ccc(Cc2c[nH]c3ncccc23)cn1)c1ccc(F)c(C(F)(F)F)c1 [P-0112, 4-Fluoro-N-[5-(1H-pyrrolo[2,3-b]pyridin-3-ylmethyl)-pyridin-2-yl]-3-trifluoromethyl-benzamide] | < 1000
O=C(Nc1ccc(Cc2c[nH]c3ncccc23)cn1)c1cccc(OC(F)(F)F)c1 [P-0113, N-[5-(1H-Pyrrolo[2,3-b]pyridin-3-ylmethyl)-pyridin-2-yl]-3-trifluoromethoxy-benzamide] | < 1000
O=C(Nc1ccc(Cc2c[nH]c3ncccc23)cn1)c1cccc(C(F)(F)F)c1 [P-0114, N-[5-(1H-Pyrrolo[2,3-b]pyridin-3-ylmethyl)-pyridin-2-yl]-3-trifluoromethyl-benzamide] | < 1000
O=C(Nc1ccc(Cc2c[nH]c3ncccc23)cn1)c1ccc(F)c(Cl)c1 [P-0115, 3-Chloro-4-fluoro-N-[5-(1H-pyrrolo[2,3-b]pyridin-3-ylmethyl)-pyridin-2-yl]-benzamide] | < 1000
O=C(Nc1ccc(Cc2c[nH]c3ncccc23)cn1)c1ccc(F)c(F)c1 [P-0116, 3,4-Difluoro-N-[5-(1H-pyrrolo[2,3-b]pyridin-3-ylmethyl)-pyridin-2-yl]-benzamide] | < 1000
Cc1ccc(F)cc1C(=O)Nc1ccc(Cc2c[nH]c3ncccc23)cn1 [P-0118, 5-Fluoro-2-methyl-N-[5-(1H-pyrrolo[2,3-b]pyridin-3-ylmethyl)-pyridin-2-yl]-benzamide] | < 1000
COc1cccc(C(=O)Nc2ccc(Cc3c[nH]c4ncccc34)cn2)c1 [P-0120, 3-Methoxy-N-[5-(1H-pyrrolo[2,3-b]pyridin-3-ylmethyl)-pyridin-2-yl]-benzamide] | < 1000
O=C(Nc1ccc(Cc2c[nH]c3ncccc23)cn1)c1cccc(F)c1 [P-0121, 3-Fluoro-N-[5-(1H-pyrrolo[2,3-b]pyridin-3-ylmethyl)-pyridin-2-yl]-benzamide] | < 1000
Cc1cccc(C(=O)Nc2ccc(Cc3c[nH]c4ncccc34)cn2)c1 [P-0122, 3-Methyl-N-[5-(1H-pyrrolo[2,3-b]pyridin-3-ylmethyl)-pyridin-2-yl]-benzamide] | < 1000
O=C(Nc1ccc(Cc2c[nH]c3ncccc23)cn1)c1ccnc(Cl)c1 [P-0123, 2-Chloro-N-[5-(1H-pyrrolo[2,3-b]pyridin-3-ylmethyl)-pyridin-2-yl]-isonicotinamide] | < 1000
C[C@@H](Nc1ccc(Cc2c[nH]c3ncccc23)cn1)c1ccccc1 [P-0125, ((R)-1-Phenyl-ethyl)-[5-(1H-pyrrolo[2,3-b]pyridin-3-ylmethyl)-pyridin-2-yl]-amine] | < 1000

The remaining lines, values ahead:

IC50 [nM] | Structure (SMILES)
< 1000 | c1ccc(CNc2ccc(Cc3c[nH]c4ncccc34)cn2)cc1 [P-0001, benzyl-[5-(1H-pyrrolo[2,3-b]pyridin-3-ylmethyl)-pyridin-2-yl]-amine]
< 1000 | O=C(c1ccc(NCc2ccccc2)nc1)c1c[nH]c2ncccc12 [P-0002, (6-Benzylamino-pyridin-3-yl)-(1H-pyrrolo[2,3-b]pyridin-3-yl)-methanone]
< 1000 | COc1ccc(CNc2ccc(Cc3c[nH]c4ncccc34)cn2)cc1 [P-0004, (4-methoxy-benzyl)-[5-(1H-pyrrolo[2,3-b]pyridin-3-ylmethyl)-pyridin-2-yl]-amine]
< 1000 | c1csc(CNc2ccc(Cc3c[nH]c4ncccc34)cn2)c1 [P-0008, [5-(1H-pyrrolo[2,3-b]pyridin-3-ylmethyl)-pyridin-2-yl]-thiophen-2-ylmethyl-amine]
< 1000 | COc1ccnc2[nH]cc(Cc3ccc(NCc4ccc(Cl)cc4)nc3)c12 [P-0010, [5-(4-Methoxy-1H-pyrrolo[2,3-b]pyridin-3-ylmethyl)-pyridin-2-yl]-(4-chloro-benzyl)-amine]
< 1000 | COc1ccnc2[nH]cc(Cc3ccc(NCc4ccc(C(F)(F)F)cc4)nc3)c12 [P-0011, [5-(4-Methoxy-1H-pyrrolo[2,3-b]pyridin-3-ylmethyl)-pyridin-2-yl]-(4-trifluoromethyl-benzyl)-amine]
< 1000 | Cc1nc(NCc2ccc(C(F)(F)F)cc2)ccc1Cc1c[nH]c2ncccc12 [P-0013, [6-Methyl-5-(1H-pyrrolo[2,3-b]pyridin-3-ylmethyl)-pyridin-2-yl]-(4-trifluoromethyl-benzyl)-amine]
< 1000 | Cc1nc(NCc2ccc(Cl)cc2)ccc1Cc1c[nH]c2ncccc12 [P-0014, (4-Chloro-benzyl)-[6-methyl-5-(1H-pyrrolo[2,3-b]pyridin-3-ylmethyl)-pyridin-2-yl]-amine]
< 1000 | O=C(c1ccc(NCc2ccc(F)cc2)nc1)c1c[nH]c2ncccc12 [P-0015, [6-(4-Fluoro-benzylamino)-pyridin-3-yl]-(1H-pyrrolo[2,3-b]pyridin-3-yl)-methanone]
< 1000 | O=C(c1ccc(NCc2ccc(C(F)(F)F)cc2)nc1)c1c[nH]c2ncccc12 [P-0017, (1H-Pyrrolo[2,3-b]pyridin-3-yl)-[6-(4-trifluoromethyl-benzylamino)-pyridin-3-yl]-methanone]
< 1000 | O=C(c1ccc(NCc2cccs2)nc1)c1c[nH]c2ncccc12 [P-0018, (1H-Pyrrolo[2,3-b]pyridin-3-yl)-{6-[(thiophen-2-ylmethyl)-amino]-pyridin-3-yl}-methanone]
< 1000 | COc1ccc(Cc2c[nH]c3nccc(-c4ccsc4)c23)cn1 [P-0022, 3-(6-Methoxy-pyridin-3-ylmethyl)-4-thiophen-3-yl-1H-pyrrolo[2,3-b]pyridine]
< 1000 | O=C(c1ccc(Nc2cccc(O)c2)nc1)c1c[nH]c2ncccc12 [P-0027, [6-(3-Hydroxy-phenylamino)-pyridin-3-yl]-(1H-pyrrolo[2,3-b]pyridin-3-yl)-methanone]
< 1000 | Clc1ccc(CNc2ccc(Cc3c[nH]c4ncc(Br)cc34)cn2)cc1 [P-0038, [5-(5-Bromo-1H-pyrrolo[2,3-b]pyridin-3-ylmethyl)-pyridin-2-yl]-(4-chloro-benzyl)-amine]
< 1000 | Clc1ccc(CNc2ccc(Cc3c[nH]c4ncccc34)nn2)cc1 [P-0092, (4-Chloro-benzyl)-[6-(1H-pyrrolo[2,3-b]pyridin-3-ylmethyl)-pyridazin-3-yl]-amine]
< 1000 | c1cnc2[nH]cc(Cc3ccc(NCc4ccc(CN5CCOCC5)cc4)nc3)c2c1 [P-0093, (4-Morpholin-4-ylmethyl-benzyl)-[5-(1H-pyrrolo[2,3-b]pyridin-3-ylmethyl)-pyridin-2-yl]-amine]
< 1000 | c1cncc(CNc2ccc(Cc3c[nH]c4ncccc34)cn2)c1 [P-0094, Pyridin-3-ylmethyl-[5-(1H-pyrrolo[2,3-b]pyridin-3-ylmethyl)-pyridin-2-yl]-amine]
